Data reported in patent US7989420B2, “Smooth muscle relaxation” (New York Medical College, priority 2006, dated 2011).

What was measured:
[1] = system: bovine pulmonary arteries (BPA); experiment: Protoporphyrin IX-associated tissue fluorescence in organ cultured BPA rings; format: cell-based; conditions: for BPA fluorescence: 100 μM ALA without or with 100 μM deferoxamine
Description: (§1) Organoid Culture Isolated Arteries for Heme Modulation. Intralobar BPA were isolated from slaughterhouse-derived bovine calf lungs, cleaned from surrounding tissue, and placed in 37° C. Dulbecco's Modified Eagle Medium (DMEM) containing 10% fetal bovine serum, penicillin, streptomycin, and fungizone (complete media). The arteries were isolated and cut into rings ˜2 mm in diameter and width, and the endothelium was removed by gentle rubbing of the lumen. Various compounds (i.e. ALA, FeSO4(Fe), deferoxamine) were added as described in the Results to various experimental groups, and these arteries were organ cultured overnight for 24 h in complete media in a 37° C.-5% CO2 incubator. Preliminary experiments on the time course for detection protoporphyrin IX accumulation and the effects of organ culture with doses of ALA in the 10-100 μM concentration range on contractile function, and minimizing the duration of organ culture were considerations that contributed to selecting the 24 h culture period used in this study.
Determination Changes in Protoporphyrin 1× and Heme Levels. Methods for the detection of protoporphyrin IX tissue fluorescence developed for the detection in cancerous cells with tissue depths of up to several millimeters (27) were adapted for detecting changes in the endogenous levels of protoporphyrin IX in BPA rings which were organ cultured with ALA. When excited with light in the regions of 505 and 540 nm, protoporphyrin IX has an emission in the region of 635 nm. […] Increases in protoporphyrin IX were measured using an excitation wavelength of 528±20 nm and emission of 620±40 nm in intact vessels. Ring segments of approximately equal size (˜4 mm in diameter and length) were centered on the bottom of the ˜6 mm diameter wells of a 96 well microplate with 200 μl of Krebs containing with 10 mM Hepes buffer (pH 7.4), and the fluorescence was measured from the bottom surface of the plate using BIOTEK fluorescent microplate reader (Model FLx800i). Data are reported in the arbitrary fluorescence units measured (AU), after subtraction of the low levels of background fluorescence observed in the absence of BPA.

sGC = experiment: Western blot of sGC expression in BPA; format: cell-based, bovine; conditions: organ culture with 100 μM ALA, Western analysis
Description: Rings from studies on contractile function were snap-frozen in liquid nitrogen, crushed and homogenized in lysis buffer (50 mM Tris-HCl, pH 8.0, 150 mM NaCl, 1 mM EDTA, 1% Triton X-100, 0.5% sodium deoxycholate, 0.1% sodium dodecyl sulfate, 1% of a protease inhibitor cocktail (Sigma) and 1% of a phosphatase inhibitor cocktail (Sigma). The protease inhibitor cocktail included 4-(2-aminoethyl)benzenesulfonyl floride hydrocholride, aprotinin, bestatin hydrochloride, N-(trans-epoxsuccinyl)-L-leucine-4-guanidinobutylamide, leupeptine hemisulfate, pepstatin and the phosphatase inhibitor cocktail included sodium orthovandate, sodium molybdate, sodium tartarate, and imidazole. Protein concentration was determined and 30 μg of protein samples were prepared in electrophoresis sample buffer containing 3% SDS and 3% β-mercaptoethanol and were separated using a 12% gel SDS-PAGE electrophoresis. Membranes were blocked for 1 h in TBST-5% milk and incubated overnight with phospho-VASP antibodies (diluted 1:1000). Membranes were exposed to a secondary horse radish peroxidase linked antibody and visualized with an ECL kit (Amersham). […] Membranes were subsequently washed, blocked and detected for total VASP. […] Expression of sGC was detected with β-sGC subunit antibodies (diluted 1:2000), employing anti-rabbit secondary antibodies, and a protocol where membranes were blocked for 2 h. […]

bovine bronchi = experiment: Force generation to acetylcholine in organ cultured bovine bronchi; format: cell-based; conditions: organ culture with 0.1 mM ALA for 24 hrs vs absence of ALA
Description: Studies on the Regulation of Contractile Function. Following the overnight incubation, arterial rings were mounted on wire hooks attached to Grass (FT03) force displacement transducers for measurement of changes in isometric force. Tension was adjusted to 5 g, which is the optimal passive force for maximal contraction. Changes in force were recorded on a Grass polygraph (model 7), while vessels were incubated in 10-ml baths (Metro Scientific), which were individually thermostated (37° C.) in Krebs buffer gassed with 21% O2-5% CO2 (balance N2) in the absence of compounds used to modulate BPA protoporphyrin IX levels. Arteries were incubated for 1 h during which passive tension was adjusted to maintain 5 grams. […] The effects of ODQ on relaxation to NO was determined by first contracting organ cultured control and ODQ-treated BPA with 1 μM 5-HT (after the initial exposure to increasing concentrations of 5-HT and a 30 min equilibration in Krebs).
Bovine bronchi were isolated from the same lungs used for pulmonary arteries, and studied for changes in protoporphyrin IX fluorescence and force under the same conditions as bovine pulmonary arteries described above. Superoxide was detected by the chemiluminescence produced by 5 μM lucigenin, which was detected by photon counting in a scintillation counter.

[2] = system: bovine pulmonary arteries (BPA); experiment: Isometric force generation to serotonin (5-HT) in organ cultured BPA rings; format: cell-based; conditions: 24 h organ culture
Description: as §1
Studies on the Regulation of Contractile Function. Following the overnight incubation, arterial rings were mounted on wire hooks attached to Grass (FT03) force displacement transducers for measurement of changes in isometric force. Tension was adjusted to 5 g, which is the optimal passive force for maximal contraction. Changes in force were recorded on a Grass polygraph (model 7), while vessels were incubated in 10-ml baths (Metro Scientific), which were individually thermostated (37° C.) in Krebs buffer gassed with 21% O2-5% CO2 (balance N2) in the absence of compounds used to modulate BPA protoporphyrin IX levels. Arteries were incubated for 1 h during which passive tension was adjusted to maintain 5 grams. The vessels were then depolarized with Krebs containing 123 mM KCl (High K^+) in place of NaCl, followed by re-equilibration with Krebs, prior to exposure to the experimental protocols. Following the wash with Krebs buffer after the High K^+ treatment, and a 30 min equilibration, BPA were then contracted with serotonin (5-HT) in a dose dependent manner to determine the response to this contractile agent. In some experiments, BPA were pretreated with the sGC inhibitor, 10 μM ODQ, for 15 min before contraction with serotonin. The effects of ODQ on relaxation to NO was determined by first contracting organ cultured control and ODQ-treated BPA with 1 μM 5-HT (after the initial exposure to increasing concentrations of 5-HT and a 30 min equilibration in Krebs).

aorta = experiment: Contraction to PDBu of aorta from rats treated with ALA in vivo; set-up: species or system rat; conditions: single dose 60 mg/kg ALA i.p., 24 hours after treatment
Description: The rats were pretreated with 60 mg/kg ALA or with a saline vehicle (i.p.). After 24 hours they were anesthetized with 50 mg/kg sodium pentobarbital and the aorta was removed for in vitro studies. Isolated aortic rings were studied for changes in protoporphyrin IX fluorescence and force under the same conditions similar to those used for bovine pulmonary arteries described above, except that 1 gram of passive force was used.

Compound: NCC(=O)CCC(=O)O [ALA, δ-aminolevulinic acid]
- fluorescence potentially originating from protoporphyrin IX ([1]; 10 μM ALA, 24 h organ culture): did not cause a detectable increase in fluorescence
- increase in fluorescence over the background fluorescence of BPA ([1]; 50 μM and 100 μM ALA, 24 h organ culture): up to 2 fold
- BPA fluorescence ([1]; after 8 h of organ culture): 1015±79 AU
- BPA fluorescence ([1]; after 24 h of organ culture): 1658±122 AU
- concentration of protoporphyrin IX solution producing similar fluorescence ([1]; increase in BPA fluorescence caused by 100 μM ALA): ~3 µM
- tissue fluorescence potentially originating from protoporphyrin IX ([1]; organ culture with 100 μM ALA, after 16 and 24 h of incubation): increase in tissue fluorescence
- levels of sGC relative to BPA organ cultured in the absence of ALA (sGC): 71±19%
- force generation to 10 μM acetylcholine (ACh) (bovine bronchi): inhibits (relaxes) force generation
- force generation to 5-HT ([2]; 10 μM ALA, appeared to depress force at higher doses of 5-HT): did not reach statistical significance
- decrease in force generation to 5-HT ([2]; 50 μM and 100 μM ALA): 50-90%
- force generation to 5-HT ([2]; 100 μM ALA, 0.1-10 μM 5-HT in the absence of ALA): markedly inhibit force generation
- contraction of aorta to 10 μM PDBu (aorta): decreased contraction
